The target in the assay is T1, HDAC6 (Homo sapiens, UniProt Q9UBN7).
T1 sequence (Q9UBN7 1-1215): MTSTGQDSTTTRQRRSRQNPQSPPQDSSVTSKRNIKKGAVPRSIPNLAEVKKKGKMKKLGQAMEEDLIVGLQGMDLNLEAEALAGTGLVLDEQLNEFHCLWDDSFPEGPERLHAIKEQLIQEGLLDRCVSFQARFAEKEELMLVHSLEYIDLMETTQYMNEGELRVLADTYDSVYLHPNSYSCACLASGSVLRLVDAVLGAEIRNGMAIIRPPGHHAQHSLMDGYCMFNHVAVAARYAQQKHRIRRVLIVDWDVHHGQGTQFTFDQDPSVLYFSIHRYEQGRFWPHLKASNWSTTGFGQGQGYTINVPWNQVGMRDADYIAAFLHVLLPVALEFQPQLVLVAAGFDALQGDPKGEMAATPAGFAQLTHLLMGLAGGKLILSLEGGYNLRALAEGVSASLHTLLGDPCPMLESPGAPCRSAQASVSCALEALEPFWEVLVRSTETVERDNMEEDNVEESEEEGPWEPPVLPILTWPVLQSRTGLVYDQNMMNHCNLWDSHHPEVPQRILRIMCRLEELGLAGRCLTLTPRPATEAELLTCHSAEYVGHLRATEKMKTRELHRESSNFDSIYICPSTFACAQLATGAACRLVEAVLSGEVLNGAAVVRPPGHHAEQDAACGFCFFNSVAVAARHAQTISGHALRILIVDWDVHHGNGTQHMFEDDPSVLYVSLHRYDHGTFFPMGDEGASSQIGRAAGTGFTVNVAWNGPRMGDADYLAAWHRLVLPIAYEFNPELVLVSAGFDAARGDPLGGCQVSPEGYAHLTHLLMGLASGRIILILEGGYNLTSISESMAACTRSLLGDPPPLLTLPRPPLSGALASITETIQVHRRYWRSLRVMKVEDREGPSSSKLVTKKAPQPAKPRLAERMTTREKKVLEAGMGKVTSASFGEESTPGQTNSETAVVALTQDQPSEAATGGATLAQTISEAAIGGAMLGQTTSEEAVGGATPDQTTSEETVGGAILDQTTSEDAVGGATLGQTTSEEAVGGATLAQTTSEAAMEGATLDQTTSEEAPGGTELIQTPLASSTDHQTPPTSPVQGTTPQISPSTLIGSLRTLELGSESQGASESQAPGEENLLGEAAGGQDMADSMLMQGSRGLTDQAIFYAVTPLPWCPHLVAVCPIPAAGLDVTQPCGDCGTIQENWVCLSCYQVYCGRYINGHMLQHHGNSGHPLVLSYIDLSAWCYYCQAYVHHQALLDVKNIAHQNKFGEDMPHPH
The assay can be described thus: In vitro histone deacetylase assay: enzymatic HDAC6 electrophoretic mobility shift assay. In kind it is biochemical. As to conditions: full length human recombinant HDAC6, 1 nM enzyme, 2 μM peptide substrate RHKK(Ac)-NH2, 25° C.; read-out: Inhibitory Concentration (IC50) Values for Representative Compounds against HDAC6, Activity Range. The protocol:
The enzymatic HDAC6 assay was performed using electrophoretic mobility shift assay. […] The enzymatic reactions were assembled in 384 well plates in a total volume of 25 μL in a reaction buffer composing: 100 mM HEPES, pH7.5, 25 mM KCl, 0.1% bovine serum albumin, 0.01% Triton X-100, 1% DMSO (from compounds) 2 μM of the fluorescently labeled peptide substrate and enzyme. The enzyme was added at a final concentration of 1 nM. The peptide substrate RHKK(Ac)-NH2 was used. The compounds were tested at 12 concentrations spaced by 3× dilution intervals. Negative control samples (0%-inhibition in the absence of inhibitor) and positive control samples (100%-inhibition) were assembled in replicates of four in each assay plate. The reactions were incubated at 25° C. and quenched by the addition of 45 μL of termination buffer (100 mM HEPES, pH 7.5, 0.01% Triton X-100, 0.05% SDS).
The terminated assay plates were analyzed on LabChip® 3000 microfluidic electrophoresis instrument (Perkin Elmer/Caliper Life Sciences). The fluorescence intensity of the electrophoretically separated de-acetylated product and substrate peptide was measured. Activity in each sample was determined as the product to sum ratio (PSR): P/(S+P), where P is the peak height of the product peptide and S is the peak height of the substrate peptide. Percent inhibition (Pinh) is determined using the following equation:
Pinh=(PSR0%−PSRinh)/(PSR0%−PSR100%)*100, where PSRinh is the product sum ratio in the presence of inhibitor, PSR0% is the average product sum ration in the absence of inhibitor and PSR100% is the average product sum ratio in 100%-inhibition control samples. The IC50 values of inhibitors were determined by fitting the %-inhibition curves with 4 parameter dose-response model using XLfit 4 software.
Background: Mobility shift assays separate free from complexed probe on a gel.

Results on 42 compounds are retold here after patent US11279681B2, “3-alkyl bicyclic [4,5,0] hydroxamic acids as HDAC inhibitors” (Valo Health, Inc., priority 2015, dated 2022).

pIC50: −log10 of the molar value.

Turning to `COc1ccc(CN2CCOc3cc(C(=O)NO)cnc3C2)cc1`, the pIC50 is 6.30 to 7.00.

As for `COCCn1c(CN2CCOc3cc(C(=O)NO)ccc3C2)nc2ccccc21`, the pIC50 is 6.30 to 7.00.

With `C[C@H]1COc2cc(C(=O)NO)ccc2CN1C1COC1` [(S)-N-hydroxy-3-methyl-4-(oxetan-3-yl)-2,3,4,5-tetrahydrobenzo[f][1,4]oxazepine-8-carboxamide], the pIC50 is less than 6.30.

On to `C[C@@H]1CN(C)Cc2ccc(C(=O)NO)cc2O1` [(R)—N-hydroxy-2,4-dimethyl-2,3,4,5-tetrahydrobenzo[f][1,4]oxazepine-8-carboxamide], for which the pIC50 is less than 6.30.

On to `C[C@H]1COc2cc(C(=O)NO)ccc2CN1C(=O)OC1CCCCC1` [cyclohexyl(S)-8-(hydroxycarbamoyl)-3-methyl-2,3-dihydrobenzo[f][1,4]oxazepine-4(5H)-carboxylate], for which the pIC50 was not below 7.00.

Turning to `COc1ccc(CN2Cc3ccc(C(=O)NO)cc3OC[C@@H]2C(C)C)cc1`, the pIC50 is not below 7.00.

On to `O=C1CN(Cc2ccc(Cl)cc2)Cc2cc(C(=O)NO)ccc2N1`, for which the pIC50 was not below 7.00.

In the case of `C[C@H]1COc2cc(C(=O)NO)ccc2CN1c1cccc(F)c1` [(S)-4-(3-fluorophenyl)-N-hydroxy-3-methyl-2,3,4,5-tetrahydrobenzo[f][1,4]oxazepine-8-carboxamide], the pIC50 is not below 7.00.

On to `O=C1CN(Cc2ccccc2Cl)Cc2cc(C(=O)NO)ccc2N1`, for which the pIC50 is 6.30 to 7.00.

Turning to `C[C@H]1COc2cc(C(=O)NO)ccc2CN1C(=O)Oc1ccc(F)cc1` [4-fluorophenyl(S)-8-(hydroxycarbamoyl)-3-methyl-2,3-dihydrobenzo[f][1,4]oxazepine-4(5H)-carboxylate], the pIC50 is not below 7.00.

On to `COCCN(C)C(=O)N1Cc2ccc(C(=O)NO)cc2OC[C@@H]1C`, for which the pIC50 is not below 7.00.

As to `C[C@@H]1CNCc2ccc(C(=O)NO)cc2O1` [(R)—N-hydroxy-2-methyl-2,3,4,5-tetrahydrobenzo[f][1,4]oxazepine-8-carboxamide], the pIC50 was less than 6.30.

For the compound `COc1ccc(CN2CCOc3ccc(C(=O)NO)cc3C2)cn1`, the pIC50 is less than 6.30.

Consider `COc1ccc(CCN2CCOc3ccc(C(=O)NO)cc3C2)cc1`, for which the pIC50 is less than 6.30.

`CC(C)Oc1ccc(CN2CC(=O)Nc3ccc(C(=O)NO)cc3C2)cc1`: the pIC50 was not below 7.00.

For `CC(C)[C@H]1COc2cc(C(=O)NO)ccc2CN1c1ccccc1`, the pIC50 is not below 7.00.

As to `Cc1ccccc1N1Cc2ccc(C(=O)NO)cc2OC[C@@H]1C` [(S)-N-hydroxy-3-methyl-4-(o-tolyl)-2,3,4,5-tetrahydrobenzo[f][1,4]oxazepine-8-carboxamide], the pIC50 is not below 7.00.

On to `C[C@H]1COc2cc(C(=O)NO)ccc2CN1C(=O)Nc1ccccn1` [(S)-N8-hydroxy-3-methyl-N4-(pyridin-2-yl)-2,3-dihydrobenzo[f][1,4]oxazepine-4,8(5H)-dicarboxamide], for which the pIC50 was not below 7.00.

As for `COc1ccc(NC(=O)N2Cc3ccc(C(=O)NO)cc3O[C@H](C(C)C)C2)cc1` [(R)-N8-hydroxy-2-isopropyl-N4-(4-methoxyphenyl)-2,3-dihydrobenzo[f][1,4]oxazepine-4,8(5H)-dicarboxamide], the pIC50 was less than 6.30.

As to `COC[C@H]1COc2cc(C(=O)NO)ccc2CN1c1ccccc1` [(S)-N-hydroxy-3-(methoxymethyl)-4-phenyl-2,3,4,5-tetrahydrobenzo[f][1,4]oxazepine-8-carboxamide], the pIC50 was not below 7.00.

With `C[C@@H]1COc2cc(C(=O)NO)ccc2CN1` [(R)—N-hydroxy-3-methyl-2,3,4,5-tetrahydrobenzo[f][1,4]oxazepine-8-carboxamide], the pIC50 was 6.30 to 7.00.

On to `C[C@H]1COc2cc(C(=O)NO)ccc2CN1C(=O)N1CCC1` [(S)-4-(azetidine-1-carbonyl)-N-hydroxy-3-methyl-2,3,4,5-tetrahydrobenzo[f][1,4]oxazepine-8-carboxamide], for which the pIC50 was not below 7.00.

In the case of `O=C1CN(Cc2cccnc2)Cc2cc(C(=O)NO)ccc2N1`, the pIC50 is 6.30 to 7.00.

As to `COc1ccc(CCN2CCOc3cc(C(=O)NO)ccc3C2)cc1`, the pIC50 was 6.30 to 7.00.

In the case of `CC1COCCN1C(=O)N1CCOc2cc(C(=O)NO)ccc2C1` (stereo not drawn) [N-hydroxy-4-(3-methylmorpholine-4-carbonyl)-2,3,4,5-tetrahydrobenzo[f][1,4]oxazepine-8-carboxamide], the pIC50 is 6.30 to 7.00.

With `C[C@H]1COc2cc(C(=O)NO)ccc2CN1CC1CCCC1` [(S)-4-(cyclopentylmethyl)-N-hydroxy-3-methyl-2,3,4,5-tetrahydrobenzo[f][1,4]oxazepine-8-carboxamide], the pIC50 was not below 7.00.

As for `C[C@H]1COc2cc(C(=O)NO)ccc2CN1c1ccccn1` [(S)-N-hydroxy-3-methyl-4-(pyridin-2-yl)-2,3,4,5-tetrahydrobenzo[f][1,4]oxazepine-8-carboxamide], the pIC50 is not below 7.00.

`C[C@H]1CN(C)Cc2ccc(C(=O)NO)cc2O1` [(S)—N-hydroxy-2,4-dimethyl-2,3,4,5-tetrahydrobenzo[f][1,4]oxazepine-8-carboxamide]: the pIC50 is less than 6.30.

Take `COc1ccc(CN2CCOc3ccc(C(=O)NO)cc3C2=O)cc1`: the pIC50 is less than 6.30.

With `COCCCN1Cc2ccc(C(=O)NO)cc2OC[C@@H]1C` [(S)-N-hydroxy-4-(3-methoxypropyl)-3-methyl-2,3,4,5-tetrahydrobenzo[f][1,4]oxazepine-8-carboxamide], the pIC50 was 6.30 to 7.00.

Regarding `N#Cc1ccc(N2CCOc3cc(C(=O)NO)ccc3C2)cc1C(F)(F)F`, the pIC50 was 6.30 to 7.00.

On to `N#Cc1ccc(CN2CC(=O)Nc3ccc(C(=O)NO)cc3C2)cc1`, for which the pIC50 was 6.30 to 7.00.

Turning to `COc1ccccc1N1Cc2ccc(C(=O)NO)cc2OC[C@@H]1C` [(S)-N-hydroxy-4-(2-methoxyphenyl)-3-methyl-2,3,4,5-tetrahydrobenzo[f][1,4]oxazepine-8-carboxamide], the pIC50 was not below 7.00.

In the case of `COc1ccc(CN2Cc3ccc(C(=O)NO)cc3OC[C@H]2C)cc1`, the pIC50 was not below 7.00.

For `CC(C)[C@@H]1COc2cc(C(=O)NO)ccc2CN1c1ccccc1`, the pIC50 was 6.30 to 7.00.

As for `COc1ccc(CN2CC(=O)N(C)c3ccc(C(=O)NO)cc3C2)cc1`, the pIC50 is less than 6.30.

`COCCS(=O)(=O)N1Cc2ccc(C(=O)NO)cc2OC[C@@H]1C` [(S)-N-hydroxy-4-((2-methoxyethyl)sulfonyl)-3-methyl-2,3,4,5-tetrahydrobenzo[f][1,4]oxazepine-8-carboxamide]: the pIC50 was 6.30 to 7.00.

As for `C[C@H]1COc2cc(C(=O)NO)ccc2CN1c1ccccc1`, the pIC50 was not below 7.00.

Regarding `O=C(NO)c1ccc2c(c1)OCCN(c1nc3ccccc3s1)C2`, the pIC50 was 6.30 to 7.00.

Regarding `COc1ccc(S(=O)(=O)N2Cc3ccc(C(=O)NO)cc3O[C@H](C)C2)cc1`, the pIC50 is 6.30 to 7.00.

On to `Cc1ccc(N2CCOc3cc(C(=O)NO)ccc3C2)cc1` [N-hydroxy-4-(p-tolyl)-2,3,4,5-tetrahydrobenzo[f][1,4]oxazepine-8-carboxamide], for which the pIC50 was 6.30 to 7.00.

Regarding `COC[C@@H]1COc2cc(C(=O)NO)ccc2CN1c1ccccc1C` [(R)-N-hydroxy-3-(methoxymethyl)-4-(o-tolyl)-2,3,4,5-tetrahydrobenzo[f][1,4]oxazepine-8-carboxamide], the pIC50 was not below 7.00.
